From US7501410B2, “Methods of inhibiting BTK and SYK protein kinases” (Roche Palo Alto LLC, priority 2006, dated 2009)
Where “and” joins values, the source holds several entries; their conditions need not be identical. Identical values can stand only once. Like-named read-outs stand apart in the source and are kept apart here.

Assays:
[1] = target: T1, Bruton's Tyrosine Kinase (Btk) (Homo sapiens, UniProt Q06187); assay: Determination of IC50 of Bruton's Tyrosine Kinase (Btk) inhibition, 33P filtration assay; assay type: biochemical; conditions: His-tagged full-length Btk, 100 μM ATP
T1 construct: 5-10 nM Btk enzyme (His-tagged, full-length); His tag
From the text: Determination of IC50 of Bruton's Tyrosine Kinase (Btk) Inhibition
The assay is a capture of radioactive ^33P phosphorylated product through filtration. The interactions of Btk, biotinylated SH2 peptide substrate (Src homology), and ATP lead to phosphorylation of the peptide substrate. Biotinylated product is bound streptavidin sepharose beads. All bound, radiolabeled products are detected by scintillation counter.
Plates assayed are 96-well polypropylene (Greiner) and 96-well 1.2 μm hydrophilic PVDF filter plates (Millipore). Concentrations reported here are final assay concentrations: 10-100 μM compounds in DMSO (Burdick and Jackson), 5-10 nM Btk enzyme (His-tagged, full-length), 30 μM peptide substrate (Biotin-Aca-[…]-NH2), 100 μM ATP (Sigma), 8 mM imidazole (Sigma, pH 7.2), 8 mM glycerol-2-phosphate (Sigma), 200 μM EGTA (Roche Diagnostics), 1 mM MnCl2 (Sigma), 20 mM MgCl2 (Sigma), 0.1 mg/ml BSA (Sigma), 2 mM DTT (Sigma), 1 μCi ^33P ATP (Amersham), 20% streptavidin sepharose beads (Amersham), 50 mM EDTA (Gibco), 2 M NaCl (Gibco), 2 M NaCl w/1% phosphoric acid (Gibco), microscint-20 (Perkin Elmer).
IC50 determinations are calculated from 10 data points per compound utilizing data produced from a standard 96-well plate assay template. One control compound and seven unknown inhibitors were tested on each plate and each plate was run twice. Typically, compounds were diluted in half-log starting at 100 μM and ending at 3 nM. The control compound was staurosporine. Background was counted in the absence of peptide substrate. Total activity was determined in the presence of peptide substrate. The following protocol was used to determine BTK inhibition.
1) Sample preparation: The test compounds were diluted at half-log increments in assay buffer (imidazole, glycerol-2-phosphate, EGTA, MnCl2, MgCl2, BSA).
2) Bead preparation • a.) rinse beads by centrifuging at 500 g • b.) reconstitute the beads with PBS and EDTA to produce a 20% bead slurry
3) Pre-incubate reaction mix without substrate (assay buffer, DTT, ATP, ^33P ATP) and mix with substrate (assay buffer, DTT, ATP, ^33P ATP, peptide substrate) 30° C. for 15 min.
4) To start assay, pre-incubate 10 μL BTK in enzyme buffer (imidazole, glycerol-2-phosphate, BSA) and 10 μL of test compounds for 10 min at RT.
5) Add 30 μL reaction mixture without or with substrate to BTK and compounds.
6) Incubate 50 μL total assay mix for 30 min at 30° C.
7) Transfer 40 μL of assay to 150 μL bead slurry in filter plate to stop reaction.
8) Wash filter plate after 30 min, with following steps • a. 3 ×250 μL NaCl • b. 3×250 μL NaCl containing 1% phosphoric acid • c. 1×250 μL H2O
9) Dry plate for 1 h at 65° C. or overnight at RT
10) Add 50 μL microscint-20 and count ^33P cpm on scintillation counter.
Calculate percent activity from raw data in cpm percent activity=(sample−bkg)/(total activity−bkg)×100

[2] = target: T2, Spleen Tyrosine Kinase (SYK) aa 360-635 (Homo sapiens, UniProt P43405); assay: Determination of IC50 of Spleen Tyrosine Kinase (SYK) inhibition, 33P kinase assay; assay type: biochemical; conditions: recombinant human SYK360-635, 20 μM ATP
T2 construct: truncated construct of Spleen Tyrosine Kinase aa 360-635; made in house
Description: Determination of IC50 of Spleen Tyrosine Kinase (SYK) Inhibition
The SYK kinase assay is a standard kinase assay adapted to a 96 well plate format. This assay is performed in 96-well format for IC50 determination with 8 samples which represented 10 half log dilutions and a 40 μL reaction volume. The assay measures the incorporation of radiolabeled ^33P γATP into an N-terminally biotinylated peptide substrate, derived from naturally occurring phosphoacceptor consensus sequence (Biotin-11aa DY*E). Phosphorylated products were detected upon termination of reactions with EDTA and the addition of Streptavidin coated beads. • Assay plates: 96-well MultiScreen 0.65 um filter plates (Millipore Cat. No.: MADVNOB10) • Streptavidin coated beads: Streptavidin Sepharose TM, suspension 5.0 mL, in 50 mM EDTA/PBS diluted (1:100), (Amersham, Cat. No.: 17-5113-01) • Compounds: 10 mM in 100% dimethylsulfoxide (DMSO), final conc.: compound 0.003-100 uM in 10% DMSO • Enzyme: SYK RPA purified, truncated construct of Spleen Tyrosine Kinase aa 360-635, stock solution 1 mg/mL, MW: 31.2 KDa, final conc.:0.0005 μM. • Peptide 1: biotinylated peptide is derived from a naturally occurring phosphor-acceptor consensus sequence (Biotin-[…]), special order from QCB, stock solution 20 mM, final conc.: 5.0 μM. • ATP: Adenosine-5′-triphosphate 20 mM, (ROCHE Cat. No.:93202720), final concentration: 20 μM • Buffer: HEPES: 2-Hydroxyethyl piperazine-2-ethanesulfonic acid (Sigma, Cat. No.: H-3375) final concentration: 50 mM HEPES pH7.5 • BSA: Bovine Serum Albumin Fraction V, fatty acid free (Roche Diagnostics GmbH, Cat. No. 9100221) diluted to a final concentration of 0.1% • EDTA: EDTA stock solution 500 mM, (GIBCO, Cat. No.: 15575-038) final concentration: 0.1 mM • DTT: 1,4-Dithiothreitol (Roche Diagnostics GmbH, Cat. No.: 197777), final conc.: 1 mM • MgCl2×6H2O: MERCK, Cat. No.: 105833.1000, final concentration: 10 mM • Assay Dilution Buffer (ADB): 50 mM HEPES, 0.1 mM EGTA, 0.1 mM Na Vanadate, 0.1 mM β-glycerophosphate, 10 mM MgCl2, 1 mM DTT, 0,1% BSA, pH 7.5 • Bead wash buffer: 10 g/L PBS (Phosphate buffered saline) with 2M NaCl+1% phosphoric acid Experimental Method:
In 40 μL volume, 26 μL of ADB diluted, purified recombinant human SYK360-635 [0.5 nM] was mixed with 4 μL of 10× concentrations of the test compounds, [usually 100 μM-0.003 μM] in [10%] DMSO and the mixture was incubated for 10 min at RT.
The kinase reaction was initiated by the addition of 10 μL 4× substrate cocktail containing the DYE peptide substrate [0 or 5 μM], ATP [20 μM] and […] [2 μCi/rxn]. After incubation at 30° C. for 15 min, the reaction was terminated by the transfer of 25 μL of the reaction sample to a 96 well 0.65 um Millipore MADVNOB membrane/plate containing 200 μL 5 mM EDTA and 20% Streptavidine coated beads in PBS.
The unbound radionucleotides were washed under vacuum with 3×250 μL 2M NaCl; 2×250 μL 2M NaCl+1% phosphoric acid; 1×250 μL H2O. After the last wash membrane/plates were transferred to an adaptor plate, heat dried for 15 min at 60° C., and 50 μL scintillation cocktail was added to each well and 4 h later the amount of radioactivity was counted in a top counter.
The IC50 was calculated using a non-linear curve fit with XLfit software (ID Business Solution Ltd., Guilford, Surrey, UK). […] Representative results are in Table 1.

T1 sequence (Q06187 whole entry): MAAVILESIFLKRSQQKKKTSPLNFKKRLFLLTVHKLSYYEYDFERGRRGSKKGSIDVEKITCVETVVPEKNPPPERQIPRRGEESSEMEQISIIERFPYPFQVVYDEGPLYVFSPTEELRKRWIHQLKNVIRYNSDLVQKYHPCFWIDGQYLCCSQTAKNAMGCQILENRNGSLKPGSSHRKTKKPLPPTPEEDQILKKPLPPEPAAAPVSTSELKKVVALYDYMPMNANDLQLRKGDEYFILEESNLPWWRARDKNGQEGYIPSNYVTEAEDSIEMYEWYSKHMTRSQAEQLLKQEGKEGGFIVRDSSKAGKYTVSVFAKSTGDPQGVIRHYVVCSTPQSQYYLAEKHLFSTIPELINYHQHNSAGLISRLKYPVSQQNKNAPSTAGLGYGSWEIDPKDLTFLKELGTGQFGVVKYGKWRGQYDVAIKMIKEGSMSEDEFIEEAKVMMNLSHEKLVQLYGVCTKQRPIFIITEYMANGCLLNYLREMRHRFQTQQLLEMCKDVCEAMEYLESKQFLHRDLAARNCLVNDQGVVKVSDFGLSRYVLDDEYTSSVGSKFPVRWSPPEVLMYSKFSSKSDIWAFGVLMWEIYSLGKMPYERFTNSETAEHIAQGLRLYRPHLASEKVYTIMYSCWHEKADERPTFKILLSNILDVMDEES

IC50 [1] [µM]	IC50 ([2]; read-out: IC50 (μM) SYK Assay) [µM]	SMILES	IC50 ([2]; IC50 (μM) SYK Assay)
5.03	1.19	Cc1cc(Nc2nn(-c3ccc(Cl)cc3)c(=O)c3ccccc23)n[nH]1 [Example B-1, 2-(4-Chloro-phenyl)-4-(5-methyl-1H-pyrazol-3-ylamino)-2H-phthalazin-1-one]	–
30	0.552	Cc1cc(Nc2nn(-c3ccc(C(C)(C)C)cc3)c(=O)c3ccccc23)n[nH]1 [Example A-8, 2-(4-tert-butyl-phenyl)-4-(5-methyl-1H-pyrazol-3-ylamino)-2H-phthalazin-1-one]	–
67.7	9.99	Cc1cc(Nc2nn(C(C)C)c(=O)c3cc(C(=O)OCC4CC4)ccc23)n[nH]1 [Example M-6, 3-Isopropyl-1-(5-methyl-1H-pyrazol-3-ylamino)-4-oxo-3,4-dihydro-phthalazine-6-carboxylic acid cyclopropylmethyl ester]	–
14.6	> 10	Cc1cc(Nc2nn(Cc3cc(F)cc(F)c3)c(=O)c3ccccc23)n[nH]1 [Example A-21, 2-(3,5-difluoro-benzyl)-4-(5-methyl-1H-pyrazol-3-yl-amino)-2H-phthalazin-1-one]	–
1.11	4.29	Cc1cc(Nc2nn(C(C)C)c(=O)c3cc(S(C)(=O)=O)ccc23)n[nH]1 [Example H-2, 2-Isopropyl-7-methanesulfonyl-4-(5-methyl-1H-pyrazol-3-ylamino)-2H-phthalazin-1-one]	–
2.23	5.62	CC(=O)Nc1ccc2c(Nc3cc(C)[nH]n3)nn(C(C)C)c(=O)c2c1 [Example I-8, N-[3-Isopropyl-1-(5-methyl-1H-pyrazol-3-ylamino)-4-oxo-3,4-dihydro-phthalazin-6-yl]-acetamide]	–
0.724	0.793	COc1ccc2c(Nc3cc(C)[nH]n3)nn(C(C)C)c(=O)c2c1 [Example G-1, 2-Isopropyl-4-(5-methyl-1H-pyrazol-3-ylamino)-7-methoxy-2H-phthalazin-1-one]	–
14.6	37.4	Cc1cc(Nc2nn(C(C)C)c(=O)c3ccc(N(C)C)cc23)n[nH]1 [Example F-7, 2-Isopropyl-4-(5-methyl-1H-pyrazol-3-ylamino)-6-dimethylamino-2H-phthalazin-1-one]	–
25.2	87.9	Cc1cc(Nc2nn(Cc3csc(C)n3)c(=O)c3ccccc23)n[nH]1 [Example A-16, 4-(5-methyl-1H-pyrazol-3-ylamino)-2-(2-methyl-thiazol-4-ylmethyl)-2H-phthalazin-1-one]	–
4.32	1.57	CSc1ccc2c(Nc3cc(C)[nH]n3)nn(C(C)C)c(=O)c2c1 [Example H-1, 2-Isopropyl-4-(5-methyl-1H-pyrazol-3-ylamino)-7-methylsulfanyl-2H-phthalazin-1-one]	–
10.4	7.67	Cc1cc(Nc2nn(CC(=O)c3ccccc3)c(=O)c3ccccc23)n[nH]1 [Example E-9, 4-(5-methyl-1H-pyrazol-3-ylamino)-2-(2-oxo-2-phenyl-ethyl)-2H-phthalazin-1-one]	–
58.2	87.5	Cc1cc(Nc2nn(C(C)C)c(=O)c3ccc(F)cc23)n[nH]1 [Example E-3, 6-Fluoro-2-isopropyl-4-(5-methyl-1H-pyrazol-3-ylamino)-2H-phthalazin-1-one]	–
0.44	0.894	Cc1cc(Nc2nn(C(C)C)c(=O)c3cc(CS(C)(=O)=O)ccc23)n[nH]1 [Example ZI-2, 2-Isopropyl-7-methanesulfonylmethyl-4-(5-methyl-1H-pyrazol-3-yl-amino)-2H-phthalazin-1-one]	–
> 100	36.4	Cc1cc(Nc2nn(C(C)C)c(=O)c3ccc(N4CCOCC4)cc23)n[nH]1 [Example F-2, 2-Isopropyl-4-(5-methyl-1H-pyrazol-3-ylamino)-6-morpholino-2H-phthalazin-1-one]	–
0.769	2.16	Cc1cc(Nc2nn(C(C)C)c(=O)c3cc(C(=O)NC(C)C)ccc23)n[nH]1 [Example M-5, 3-Isopropyl-1-(5-methyl-1H-pyrazol-3-ylamino)-4-oxo-3,4-dihydro-phthalazine-6-carboxylic acid isopropylamide]	–
9.79	49.2	COc1ccc(Cn2nc(Nc3cc(C)[nH]n3)c3ccccc3c2=O)cc1 [Example A-11, 2-(4-methoxy-benzyl)-4-(5-methyl-1H-pyrazol-3-ylamino)-2H-phthalazin-1-one]	–

SMILES	IC50 [1] [µM]	IC50 ([2]; read-out: IC50 (μM) SYK Assay) [µM]	IC50 ([2]; IC50 (μM) SYK Assay)
Cc1cc(Nc2nn(C(C)C)c(=O)c3cc(N4CCCCC4)ccc23)n[nH]1 [Example F-10, 2-Isopropyl-4-(5-methyl-1H-pyrazol-3-ylamino)-7-piperidin-1-yl-2H-phthalazin-1-one]	0.608	–	0.551 µM and 4.3 µM and 3.57 µM
